Laboratory results as given in patent US12721881B2, “Endostatin peptides for the treatment of tumors, fibrosis and acute lung injury” (MUSC Foundation for Research Development, priority 2019, dated 2026).
Where no end group is shown, it is not given here. The star is where a group is joined. Biotin = O=C1N[C@H]2[C@H](CS[C@H]2CCCCC(=O)*)N1

How the values were obtained:
[1] = system: fibroblasts from lungs of patients with SSc; experiment: Gene expression in fibroblasts from lungs of patients with systemic sclerosis (SSc); type: cell-based, human; conditions: SSc lung fibroblasts
Procedure: […] RNA was extracted and levels of alpha smooth muscle actin (SMA) measured by qRT-PCR.
SSc fibroblasts were treated with 10 μg/ml BioE4-03 for 72 hours. RNA was extracted and used to measure SMA and Collagen 1A2.

[2] = system: lung tissues of patients with IPF; experiment: Hydroxyproline in lung tissues of patients with IPF in organ culture; type: cell-based, human; conditions: IPF lung tissue, organ culture 72 hours
[3] = system: lung tissues of patients with SSc; experiment: Hydroxyproline in lung tissues of patients with SSc in organ culture; type: cell-based, human; conditions: SSc lung tissue, organ culture 72 hours
[4] = system: lung tissues of normal donors; experiment: Lung tissues of normal donors in organ culture after induction of fibrosis with TGFbeta; type: cell-based, human; conditions: normal donor lung tissue; for hydroxyproline levels: fibrosis induced with TGFbeta
[5] = system: human lung adenocarcinoma cells (A549); experiment: IL-6 mRNA by qPCR in A549 cells; type: cell-based; conditions: A549, 48 hours, relative to vehicle controls
Procedure: (§1) IL-6 mRNA levels were measured via qPCR in human lung adenocarcinoma cells (A549) treated for 48 hours with BioE4-03 peptide. […] For comparison, a parallel experiment was done using non-biotinylated E4-03. […] Additionally, IL-6 protein levels in the supernatant of A549 cells were measured by ELISA after 72 hours of treatment with E4-03 peptide.

[6] = system: fibroblasts from lungs of patients with IPF; experiment: Gene expression in fibroblasts from lungs of patients with idiopathic pulmonary fibrosis (IPF); type: cell-based, human; conditions: IPF lung fibroblasts
tumors = experiment: Histologic analysis of tumors (H & E, Masson Trichrome); type: in vivo, mouse; conditions: for collagen bundles in the tumors (Masson Trichrome stain): compared to tumors from vehicle treated mice
Procedure: Histological analysis of tumors treated with vehicle alone, or with BioE4-03 or Bio96 peptides was performed.

[7] = system: HCT116T cells (human colon carcinoma cells); experiment: Gene expression in HCT116T cells by real-time PCR; type: cell-based; conditions: 10 μg/ml, 48 hours
Procedure: (§2) The expression of several genes implicated in tumorigenesis, angiogenesis and cancer stem cell renewal was measured in a variety of tumor types and organs.
Tumor cells were treated with 10 μg/ml BioE4-03 for 48 hours. RNA was extracted and analyzed by real-time PCR. N=3-4 independent experiments (except for uPAR where n=2).

skin tissues from donors = experiment: Gene expression in donor skin tissues with TGFbeta-induced fibrosis; type: cell-based, human; conditions: skin tissue
Description: BioE4-03 further reduces Col1A1 and fibronectin (FN) gene expression in skin tissues from donors in which fibrosis was induced with TGFbeta (FIG. 25).

[8] = system: A549 cells (human lung adenocarcinoma cells); experiment: Gene expression in A549 cells by real-time PCR; type: cell-based; conditions: A549, 10 μg/ml, 48 hours
Procedure: as §2
Tumor cells were treated with 10 μg/ml BioE4-03 for 48 hours. RNA was extracted and analyzed by real-time PCR. N=6-8 independent experiments. Statistical analysis was done using the paired t-test.

[9] = system: mc-38 colon adenocarcinoma tumor cells; experiment: mc-38 colon adenocarcinoma tumor growth in mice, oral gavage; type: in vivo; conditions: 100 μg/mouse oral gavage twice/week; for mean rate of increase in the tumor volume at day 21: PBS control 151.1 mm^3 per day; for mean tumor volume at day 21 (model-based estimate): PBS control 1492.1 mm^3
Procedure: (§3) For each of the experiments, descriptive statistics (means and standard deviations) for tumor volumes were calculated over time for each experimental group (i.e. Experiment 1: Control vs. BioE4 (FIG. 1); Experiment 2: PBS, Bio96, and BioE4-03 (FIG. 5)). Since tumor growth tends to be curvilinear, general linear mixed models (GLMMs) were created to estimate treatment-specific growth curves over time and to make comparisons between the peptide treatments and control. Separate GLMMs were constructed for each experiment, and each GLMM included random effects for each mouse, to control for the fact that the repeated volume measurements within a given mouse were correlated with one another. Tumor volume served as the dependent variable in each model, while time (in days), […], treatment x time, and treatment x time^2 were included as independent variables. Using these models, the estimated mean tumor volumes at specific selected time points and the mean rate of change in the tumor volumes at specific selected time points were compared. If a mouse's tumor grew too large, it was sacrificed; however, all tumor volumes measured prior to sacrifice were included in the modeling process. SAS v9.4 (SAS Institute, Cary, NC) was used for all analyses. All hypothesis tests were 2-sided, and p-values <0.05 were considered statistically significant.
sMIC tolerant transgenic (MB481 strain) mice (Liu et al, Perturbation of NK cell peripheral homeostasis accelerates prostate carcinoma metastasis. J. Clin. Invest. 123:4410, 2013) were injected with 1×10^5 mc-38 colon adenocarcinoma tumor cells via subcutaneous injection When tumor size reached approximately 75 mm^3, treatment was started. start treatment at four group. Bio96 100 μg/mouse, BioE4-03 100 μg/mouse, were given via oral gavage in a volume of 100 μl. PBS (100 μl) was given as a vehicle control. Peptides and vehicle were administered twice/week. Tumor volume was measured 3 times per week.
Direct comparisons were made between the PBS control and Bio96 and between PBS and BioE4-03 with respect to the mean tumor volumes at Day 21 and the mean rate of change in the tumor volumes at Day 21 (FIG. 5 through FIG. 7).

[10] = system: systemic sclerosis pulmonary fibrosis lung tissues; experiment: MMP-1 induction in systemic sclerosis pulmonary fibrosis lung tissues in organ culture; type: cell-based, human; conditions: 10 μg/ml, TGFbeta, 120 hrs
Procedure: Systemic sclerosis pulmonary fibrosis lung tissues were divided into equal size cores. Lung tissues in organ culture were treated with different peptide fragments derived from endostatin at a final concentration of 10 μg/ml in the presence of TGFbeta for 120 hrs. The induction of matrix metalloprotease (MMP)-1 (also known as collagenase) in media conditioned by the lung tissues was examined as a measure of the ability of the peptide to reduce fibrosis and promote extracellular matrix degradation.

[11] = system: TRAMP C-2 mouse prostate tumor cells; conditions: C57BL6 mice, 50 μg/dose oral gavage twice per week, day 15, vs water vehicle
Procedure: as §3

normal lung fibroblasts [12] = experiment: Extracellular matrix proteins in TGFbeta-treated normal lung fibroblasts, immunoblotting; type: cell-based, human; conditions: 10 μg/ml peptide
Procedure: Normal lung fibroblasts were treated with vehicle as control (VC) or TGFbeta (T) in the presence or absence of 10 μg/ml of various peptide fragments. The extracellular matrix proteins, Collagen 1A1 and fibronectin (FN) were assessed using immunoblotting.

[13] = system: human lung adenocarcinoma cells (A549); experiment: IL-6 protein by ELISA in supernatant of A549 cells; type: cell-based; conditions: A549, 72 hours, relative to vehicle controls
Procedure: as §1

[14] = system: fibroblasts from lung tissues of normal donors; experiment: Alpha smooth muscle actin qRT-PCR in TGFbeta-treated fibroblasts from lung tissues of normal donors; type: cell-based, human; conditions: 48 hours
Procedure: Fibroblasts were treated with TGFbeta with or without peptide Bio96-17 for 48 hours. RNA was extracted and levels of alpha smooth muscle actin (SMA) measured by qRT-PCR.

normal lung fibroblasts [15] = experiment: Fibronectin in supernatants of TGFbeta-treated normal lung fibroblasts; type: cell-based, human; conditions: 10 μg/ml to 80 μg/ml, 72 hours
Procedure: Normal lung fibroblasts were treated with TGFbeta without or with increasing concentrations for 96-87. Supernatants were assessed for fibronectin levels after 72 hours of treatment. 96-87 had no effect on TGFbeta-induced FN production, even with increasing concentration from 10 μg/ml to 80 μg/ml (FIG. 18).

Biotin-NH2-SYCETWRTEAPSATGQASSLLGGRLLGQSAASCHHA-CONH2 [BioE4-03]
Coll1A2 levels ([1]; 10 μg/ml, 72 hours): significant reduction
SMA levels ([1]; 10 μg/ml, 72 hours): significant reduction
hydroxyproline levels [2]: significant reduction
hydroxyproline levels [3]: significant reduction
hydroxyproline levels [4]: significant reductions
expression of IL-6 mRNA [5]: significantly reduced
Coll1A2 levels [6]: trend towards decrease
SMA levels [6]: trend towards decrease
collagen bundles in the tumors (Masson Trichrome stain) (tumors): thinner collagen bundles
tumor cell arrangement (H & E) (tumors; tumors from treated mice): looser cell arrangement
tumor necrosis (H & E) (tumors; tumors from treated mice): notable necrosis
Expression of IL-6 [7]: significantly reduced
Expression of PAI-I [7]: significantly reduced
Expression of PDGF-A [7]: significantly reduced
Expression of VEGF-A [7]: significantly reduced
Expression of uPA [7]: significantly reduced
Expression of uPAR ([7]; n=2): significantly reduced
Col1A1 gene expression (skin tissues from donors): reduces
fibronectin (FN) gene expression (skin tissues from donors): reduces
Expression of IL-6 [8]: significantly reduced
Expression of LOX [8]: significantly reduced
Expression of PAI-I [8]: significantly reduced
Expression of PDGF-A [8]: significantly reduced
Expression of VEGF-A [8]: significantly reduced
Expression of uPA [8]: significantly reduced
Expression of uPAR [8]: significantly reduced
mean rate of increase in the tumor volume at day 21 [9]: 76.0 mm^3 per day
mean tumor volume at day 21 (model-based estimate) [9]: 767.7 mm^3

SYCETWRTEAPSATGQASSLL (C-terminal endostatin-derived peptide 91-96)
MMP-1 production in media conditioned by the lung tissues [10]: no effect

SYCETWRTEAPSATGQASSLLGGRLLGQ (C-terminal endostatin-derived peptide 91-97) [91-87]
MMP-1 production in media conditioned by the lung tissues [10]: no effect

Biotin-NH2-SYCETWRTEAPSATGQASSLLGGRLLGQSAASCHHAYIVLCIENSFMT-CONH2 [BioE4]
mean rate of increase in the tumor volume on day 15, Control vs. peptide group [11]: significantly (p=0.02) greater in the Control group
mean tumor volume at day 15 (model-based estimate), Control vs. peptide group [11]: significantly (p=0.0001) greater in the Control group

ATGQASSLLGGRLLGQSAASCHHA (C-terminal endostatin-derived peptide 96-17)
Col1A1 levels induced by TGFbeta (immunoblotting) (normal lung fibroblasts [12]): effective at reducing
FN levels induced by TGFbeta (immunoblotting) (normal lung fibroblasts [12]): effective at reducing
MMP-1 production in media conditioned by the lung tissues [10]: induced MMP-1 production

SYCETWRTEAPSATGQASSLLGGRLLGQSAASCHHA (C-terminal endostatin-derived peptide E4-03)
expression of IL-6 mRNA [5]: reduced
Col1A1 levels induced by TGFbeta (immunoblotting) (normal lung fibroblasts [12]): effective at reducing
FN levels induced by TGFbeta (immunoblotting) (normal lung fibroblasts [12]): effective at reducing
IL-6 protein levels in the supernatant [13]: significantly reduced
MMP-1 production in media conditioned by the lung tissues [10]: induced MMP-1 production

Bio96-17: SEQ ID NO:4 being biotinylated at its N-terminus (Biotin-ATGQASSLLGGRLLGQSAASCHHA; not fully specified (C-terminus))
Coll1A2 levels ([1]; Bio96-17 experiment): significant reduction
SMA levels ([1]; Bio96-17 experiment): significant reduction
secreted Col1A1 protein levels ([4]; TGFbeta, cultured 120 hours): significant reduction
hydroxyproline levels [4]: significant reductions
TGFbeta-induced SMA levels (qRT-PCR) [14]: significant reduction

ATGQASSLLGGRLLGQ (C-terminal endostatin-derived peptide 96-87)
TGFbeta-induced FN production (supernatants) (normal lung fibroblasts [15]): no effect

Biotin-NH2-ATGQASSLL-CONH2 (Biotin-ATGQASSLL-NH2; SMILES CC(C)C[C@H](NC(=O)[C@H](CC(C)C)NC(=O)[C@H](CO)NC(=O)[C@H](CO)NC(=O)[C@H](C)NC(=O)[C@H](CCC(N)=O)NC(=O)CNC(=O)[C@@H](NC(=O)[C@H](C)NC(=O)CCCC[C@@H]1SC[C@@H]2NC(=O)N[C@@H]21)[C@@H](C)O)C(N)=O) [Bio96]
collagen bundles in the tumors (Masson Trichrome stain) (tumors): thinner collagen bundles
tumor cell arrangement (H & E) (tumors; tumors from treated mice): looser cell arrangement
mean rate of increase in the tumor volume at day 21 [9]: 90.6 mm^3 per day
mean tumor volume at day 21 (model-based estimate) [9]: 871.4 mm^3
